For one experiment, the target named is T1, PTPN2 (B16F10.4 cells) (Mus musculus, UniProt Q06180).
T1 construct: HiBiT; host or cells: B16F10.4
T1 sequence (Q06180 1-406): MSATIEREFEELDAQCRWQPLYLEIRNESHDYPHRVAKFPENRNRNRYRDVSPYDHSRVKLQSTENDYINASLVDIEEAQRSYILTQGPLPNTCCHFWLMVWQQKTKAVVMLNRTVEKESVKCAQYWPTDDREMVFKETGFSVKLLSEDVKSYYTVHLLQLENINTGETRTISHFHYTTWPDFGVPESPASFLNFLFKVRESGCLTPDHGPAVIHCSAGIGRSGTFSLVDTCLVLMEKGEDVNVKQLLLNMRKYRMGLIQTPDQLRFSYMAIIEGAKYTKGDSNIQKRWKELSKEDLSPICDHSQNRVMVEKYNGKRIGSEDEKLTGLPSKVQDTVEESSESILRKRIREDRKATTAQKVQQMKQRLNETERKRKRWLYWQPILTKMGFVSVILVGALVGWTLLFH
Nature of the experiment: HiBiT Degradation B16F10.4 PTPN2. It is filed as cell-based. The settings on record: 24.0 hours. A general note: HiBiT is a short tag that completes a luciferase, so light tracks the accessible tagged protein.

Experiment [1] addresses T2, PTPN2 (HiBIT-PTPN2 in 293T.109 cells) (Homo sapiens, UniProt P17706).
T2 construct: expressed in transfected cells; host or cells: 293T.109 (293T WT from ATCC)
T2 sequence (P17706 1-415): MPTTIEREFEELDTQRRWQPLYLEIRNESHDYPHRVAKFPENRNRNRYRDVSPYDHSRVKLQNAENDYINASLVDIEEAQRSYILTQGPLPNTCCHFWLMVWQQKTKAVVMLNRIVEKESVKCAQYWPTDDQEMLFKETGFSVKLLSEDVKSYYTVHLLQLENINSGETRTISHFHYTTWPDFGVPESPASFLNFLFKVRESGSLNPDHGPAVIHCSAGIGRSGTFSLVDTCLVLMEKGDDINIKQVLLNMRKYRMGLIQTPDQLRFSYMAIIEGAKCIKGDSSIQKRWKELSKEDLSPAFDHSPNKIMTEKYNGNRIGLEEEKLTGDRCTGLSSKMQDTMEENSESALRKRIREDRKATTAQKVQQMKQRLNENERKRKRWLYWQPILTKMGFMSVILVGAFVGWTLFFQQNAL
In words: HiBiT Degradation 293T.109 PTPN2 (Nano-Glo HiBiT Lytic Assay). It is filed as cell-based. The note with it: 24.0 hours. The method, boiled down: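 293T.109 cells with ectopic N-terminal HiBiT-tagged PTPN2 (5000/well) exposed to compounds for 24 h at 37 °C, 5% CO2; 11-point half-log titration from 10 μM top, duplicates. Remaining HiBiT-PTPN2 read as luminescence with Nano-Glo HiBiT lytic reagent, normalised to untreated cells (0%) and reagent-free wells.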

SMILES strings stand for the structures.

Usually DC50 stands for the concentration giving 50% degradation. Lower therefore signals degradation at low concentration. Turning to `CC1(C)C[C@@H](Nc2cccc(-c3sc(C(=O)O)c(OCC(=O)O)c3Cl)c2)CCN1S(=O)(=O)Cc1cccc(NC(=O)C2CN(C(=O)COc3cccc4c3CN(C3CCC(=O)NC3=O)C4=O)C2)c1` (stereo partly drawn) [Example 74], the half-maximal degradation concentration (DC50) on PTPN2 (B16F10.4 cells) was no less than 1000 nM; in experiment [1], less than 50 nM.

Take `Cn1c(=O)n(C2CCC(=O)NC2=O)c2ccc(N3CC4(CN(C(=O)Nc5cccc(CS(=O)(=O)N6CC[C@H](Nc7cccc(-c8sc(C(=O)O)c(OCC(=O)O)c8Cl)c7)CC6(C)C)c5)C4)C3)cc21` (stereo partly drawn) [Example 140, 3-(carboxymethoxy)-4-chloro-5-[3-[[(4S)-1-[[3-[[6-[1-(2,6-dioxo-3-piperidyl)-3-methyl-2-oxo-benzimidazol-5-yl]-2,6-diazaspiro[3.3]heptane-2-carbonyl]amino]phenyl]methylsulfonyl]-2,2-dimethyl-4-piperidyl]amino]phenyl]thiophene-2-carboxylic acid]: the figures for the 50% degradation concentration (DC50) (at PTPN2 (B16F10.4 cells); in experiment [1]) were 50 to 200 nM and less than 50 nM, respectively.

As for `Cn1c(=O)n(C2CCC(=O)NC2=O)c2ccc(C3CCN(C(=O)Nc4cccc(CS(=O)(=O)N5CC[C@H](Nc6cccc(-c7sc(C(=O)O)c(OCC(=O)O)c7Cl)c6)CC5(C)C)c4F)CC3)cc21` (stereo partly drawn) [Example 125, 3-(carboxymethoxy)-4-chloro-5-[3-[[(4S)-1-[[3-[[4-[1-(2,6-dioxo-3-piperidyl)-3-methyl-2-oxo-benzimidazol-5-yl]piperidine-1-carbonyl]amino]-2-fluoro-phenyl]methylsulfonyl]-2,2-dimethyl-4-piperidyl]amino]phenyl]thiophene-2-carboxylic acid], the DC50 at PTPN2 (B16F10.4 cells) is less than 50 nM; in experiment [1], 50 to 200 nM.

Consider `CC(C)n1c(=O)n(C2CCC(=O)NC2=O)c2ccc(C3CCN(CC(=O)Nc4cccc(CS(=O)(=O)N5CC[C@H](Nc6cccc(-c7sc(C(=O)O)c(OCC(=O)O)c7Cl)c6)CC5(C)C)c4)CC3)cc21` (stereo partly drawn) [Example 204, 3-(carboxymethoxy)-4-chloro-5-(3-(((4S)-1-((3-(2-(4-(1-(2,6-dioxopiperidin-3-yl)-3-isopropyl-2-oxo-2,3-dihydro-1H-benzo[d]imidazol-5-yl)piperidin-1-yl)acetamido)benzyl)sulfonyl)-2,2-dimethylpiperidin-4-yl)amino)phenyl)thiophene-2-carboxylic acid], for which the DC50 (at PTPN2 (B16F10.4 cells); in experiment [1]) was 50 to 200 nM throughout.

As for `CC1(C)C[C@@H](Nc2cccc(-c3sc(C(=O)O)c(OCC(=O)O)c3Cl)c2)CCN1S(=O)(=O)Cc1cccc(NC(=O)N2CCN(C(=O)CNc3cccc4c3CN(C3CCC(=O)NC3=O)C4=O)CC2)c1` (stereo partly drawn) [Example 62, 3-(carboxymethoxy)-4-chloro-5-(3-(((4S)-1-((3-(4-((2-(2,6-dioxopiperidin-3-yl)-1-oxoisoindolin-4-yl)glycyl)piperazine-1-carboxamido)benzyl)sulfonyl)-2,2-dimethylpiperidin-4-yl)amino)phenyl)thiophene-2-carboxylic acid], the DC50 at PTPN2 (B16F10.4 cells) lay within 200 to 1000 nM; in experiment [1], 50 to 200 nM.

With `CC1(C)C[C@@H](Nc2cccc(-c3sc(C(=O)O)c(OCC(=O)O)c3Cl)c2)CCN1S(=O)(=O)Cc1cccc(NC(=O)CN2CCC(n3c(=O)n(C4CCC(=O)NC4=O)c4ccccc43)CC2)c1` (stereo partly drawn) [Example 130, 3-(carboxymethoxy)-4-chloro-5-[3-[[(4S)-1-[[3-[[2-[4-[3-(2,6-dioxo-3-piperidyl)-2-oxo-benzimidazol-1-yl]-1-piperidyl]acetyl]amino]phenyl]methylsulfonyl]-2,2-dimethyl-4-piperidyl]amino]phenyl]thiophene-2-carboxylic acid], the DC50 (at PTPN2 (B16F10.4 cells); in experiment [1]) was 200 to 1000 nM throughout.

Source of the values: patent publication US20250302815A1, “PROTEIN TYROSINE PHOSPHATASE TARGETING LIGANDS” (CALICO LIFE SCIENCES LLC, priority 2021, published 2025).
